Laboratory results taken from US20100247659A1, “PHENYLPHTHALIMIDE ANALOGS FOR TREATING DIABETIC MACULAR EDEMA” (Charlesson, LLC, priority 2007, published 2010).

Key:
normal BN rats [1] = experiment: Ocular toxicity, histological analysis of the retina; assay type: in vivo, rat; conditions: 2 μg/eye intravitreal, 4 weeks
Method: Histological analysis of the retina: To test the potential ocular toxicity of Compound 4, 8 week old normal BN rats received an intravitreal injection of Compound 4 (2.0 μg/eye, 5 μl/eye of 0.4 mg/ml in BN rat serum) or equal amount of BN rat serum, respectively. At various intervals after injection, the animals were sacrificed. The eyes then were removed, fixed in 4% formaldehyde, embedded in paraffin, and cut into 6-μm sections containing the whole retina. Paraffin-embedded sections were stained with hematoxylin-eosin (HE) and were examined.
Possible toxicities of CLT-033 were also examined using pathohistological examination 4 weeks after the drug administration. Retinal cross sections stained with H&E were examined under a light microscope.
Eight weeks old BN rats were received an intravitreal injection of Compound 4 (2.0 μg/eye, 5 μl/eye 0.4 mg/ml in BN rat serum) or equal amount of BN rat serum respectively (n=6). ERG was performed prior to study initiation and 1, 2, 3 and 4 weeks after the injection. Data shown no dramatic change in the a-wave and b-wave amplitudes in Compound 4-injected rats compared to vehicle-injected rats (FIG. 18A-18C). The animals were sacrificed 4 weeks after injection. The eye sections were observed under microscope with HE staining.

normal BN rats [2] = experiment: Ocular toxicity, ERG recording; assay type: in vivo, rat; conditions: 2 μg/eye intravitreal, weeks 1-4
Method: Electroretinogram (ERG) recording: Full-field ERGs were recorded by Espion E^2 ERG system (Diagnosys LLC) as described previously (Rohrer, Journal of Neuroscience, 1999, 19: […]) by two protocols: (A) 10 ms flashes of increasing light intensities under scotopic and photopic conditions, and (B) 2 Hz flicker ERG under photopic conditions. BN rats received an intravitreal injection of Compound 4 (2.0 μg/eye, 5 μl/eye of 0.4 mg/ml in BN rat serum) or equal amount of BN rat serum, respectively. At various intervals after injection, the peak a-wave amplitude was measured from baseline to the initial negative-going voltage, whereas peak b-wave amplitude was measured from the trough of the a-wave to the peak of the positive b-wave. Flicker amplitudes were measured from the preceding trough to the peak of the flicker response. Data was expressed as mean±SD and compared between the compound-injected eyes and control eyes by the paired Student's t-test.
To test the potential ocular toxicities of Compound 4, normal rats at age of 8 weeks received an intravitreal injection of a high dose of Compound 4, 2 μg/eye (5 μl/eye of 0.4 mg/ml in BN rat serum) or an equal amount of BN rat serum as the vehicle control. Prior to study initiation, and after weeks 1, 2, 3, and 4 following the injection, visual function was evaluated by ERG recording. […]

STZ-diabetic rats = conditions: cited from earlier work
HUVECs = experiment: Tube formation assay on matrigel; assay type: cell-based, human; conditions: 5 μM, 16 h
Method: Eight-well slide chambers were coated with matrigel and at 37° C. and 5% CO2 for 30 min. HUVECs were then seeded at 30,000 cells/well in EGM-II containing either vehicle (0.5% DMSO), 5 μM of Compound 4 or thalidomide and incubated at 37° C. and 5% CO2 for 16 h. After incubation, slides were washed in PBS, fixed in 100% methanol for 10 s, and stained with DiffQuick solution II for 2 min. To analyze tube formation, each well was digitally photographed using a ×2.5 objective.
Representative images were captured after incubation of vehicle, thalidomide and Compound 4 for 16 h.

OIR rats = experiment: Retinal NV in OIR rats, fluorescein angiography; assay type: in vivo, rat
Excerpt: Induction of oxygen-induced retinopathy (OIR): Induction of OIR followed the procedure as described by Smith et al (Smith, et al. Invest. Opthalmol. Vis. Sci. 1994, 35: 101-111) with some modifications. Briefly, Newborn Brown Norway (BN) rats (Charles River Laboratories) at postnatal day 7 (P7) were exposed to hyperoxia (75% O2) for 5 days (P7-12) and then returned to normoxia (room air) to induce retinopathy.
Retinal angiography with high-molecular-weight fluorescein: High molecular weight fluorescein-dextran was used in retinal angiography as described by Smith et al (Smith, et al. Invest. Opthalmol. Vis. Sci. 1994, 35:101-111). Briefly, animals were anesthetized with ketamine (100 mg/kg of body weight) plus acepromazine (5 mg/kg of body weight) and then perfused through the left ventricle with 50 mg/ml of high molecular weight fluorescein-dextran in PBS. The eyes were marked for orientation, enucleated, and fixed in 4% paraformaldeyde for 3-24 h. Several incisions were made and the retinas were flat-mounted on a gelatin-coated slide. The vasculature was then examined under a fluorescent microscope. Both the total retinal area and the area of the avascular regions were measured using a computerized image-analysis system and averaged within each group.
Newborn BN rats were exposed to 75% oxygen from age P7 to P12. […]

CC(C)c1cccc(C(C)C)c1N1C(=O)c2ccc(N)cc2C1=O [Compound 4]
retinal morphology, H&E sections (normal BN rats [1]): No apparent morphological change or immunoresponse
ERG a-wave and b-wave amplitudes (normal BN rats [2]): no detectable change in the a-wave and b-wave amplitudes

O=C1CCC(N2C(=O)c3ccccc3C2=O)C(=O)N1 (stereo not shown) [thalidomide]
VEGF in ocular fluid (STZ-diabetic rats): blocked the increase of VEGF in ocular fluid
thickening of retinal capillary basement membrane (STZ-diabetic rats): inhibited the thickening of retinal capillary basement membrane
inhibition of tube formation (HUVECs): did not show any inhibitory activity
inhibition of retinal NV (OIR rats; 1.0 μg/eye intravitreal, evaluated P20): lacked significant inhibition of retinal NV
effect on retinal NV, angiographs (FIG. 9) (OIR rats; 5 μl of 0.8 mM per eye, angiography): did not reduce the NV
